Assay type in all cases: biochemical
In one assay the target is T1, FLT3 (Homo sapiens, UniProt P36888).
T1 sequence (P36888 27-993): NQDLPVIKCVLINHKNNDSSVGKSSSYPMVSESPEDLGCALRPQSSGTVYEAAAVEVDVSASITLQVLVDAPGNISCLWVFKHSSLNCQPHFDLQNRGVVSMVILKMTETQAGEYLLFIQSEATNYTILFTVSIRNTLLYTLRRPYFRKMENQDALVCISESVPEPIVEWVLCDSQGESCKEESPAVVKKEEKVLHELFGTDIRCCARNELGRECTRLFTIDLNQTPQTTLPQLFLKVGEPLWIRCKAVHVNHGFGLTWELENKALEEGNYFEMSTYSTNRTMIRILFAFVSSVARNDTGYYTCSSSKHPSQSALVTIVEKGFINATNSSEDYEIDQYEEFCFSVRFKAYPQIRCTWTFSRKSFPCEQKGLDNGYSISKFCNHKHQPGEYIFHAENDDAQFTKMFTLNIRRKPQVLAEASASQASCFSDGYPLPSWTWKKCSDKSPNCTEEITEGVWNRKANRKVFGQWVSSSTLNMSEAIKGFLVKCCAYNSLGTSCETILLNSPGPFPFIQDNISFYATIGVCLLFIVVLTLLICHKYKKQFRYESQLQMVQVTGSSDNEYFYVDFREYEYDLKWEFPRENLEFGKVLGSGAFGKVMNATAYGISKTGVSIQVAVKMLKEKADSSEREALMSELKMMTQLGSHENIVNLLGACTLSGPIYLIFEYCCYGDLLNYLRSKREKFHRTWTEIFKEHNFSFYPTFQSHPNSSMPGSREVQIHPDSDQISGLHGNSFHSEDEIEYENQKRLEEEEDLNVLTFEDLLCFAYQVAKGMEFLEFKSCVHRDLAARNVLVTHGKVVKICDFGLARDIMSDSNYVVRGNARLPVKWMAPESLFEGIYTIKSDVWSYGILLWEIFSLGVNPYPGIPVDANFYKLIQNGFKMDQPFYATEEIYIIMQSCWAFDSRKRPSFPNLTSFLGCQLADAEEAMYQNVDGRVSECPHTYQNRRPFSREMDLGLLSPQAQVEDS
Description: TR-FRET kinase activity assay, FLT3. The following applies: ATP at Km, 60 minutes. How it is done:
(§1) IC50 values for compound inhibition of AXL, FLT3, MERTK and TYRO3 activity were determined using a TR-FRET activity assay. A peptide substrate with a fluorescent label is phosphorylated on a tyrosine by each enzyme, where the now phosphorylated product is bound by a Europium-labeled antibody specific to that phosphorylation site. The proximity between the antibody and the substrate gives a signal known as TR-FRET. As the enzyme is inhibited by compound, less phosphorylated peptide product is made, causing a decrease in overall signal.
(§2) Activity assays were performed in a 384-well, small volume, black microplates in an active enzyme volume of 10 uL and final developed volume of 20 uL. Final assay conditions are 50 mM HEPES pH 7.5, 10 mM MgCl2, 1 mM EGTA, 0.01% Brij 35 and 1 mM DTT, all at RT. Enzyme, substrate-labeled peptide and compound are mixed, and then the reaction is initiated with the addition of ATP at Km concentration for each enzyme. The reaction is allowed to run 60 minutes and then quenched with a 12.5 mM EDTA (ethylenediamine tetraacetic acid) solution. The plate is then developed with the addition of Europium-labeled antibody for a final volume of 20 uL and is then incubated for 30 minutes in darkness. Plates are read in a PHERASTAR® plate reader. Data are analyzed in GraphPad PRISM.

Another assay has as its target T2, MERTK (Homo sapiens, UniProt Q12866).
T2 sequence (Q12866 21-999): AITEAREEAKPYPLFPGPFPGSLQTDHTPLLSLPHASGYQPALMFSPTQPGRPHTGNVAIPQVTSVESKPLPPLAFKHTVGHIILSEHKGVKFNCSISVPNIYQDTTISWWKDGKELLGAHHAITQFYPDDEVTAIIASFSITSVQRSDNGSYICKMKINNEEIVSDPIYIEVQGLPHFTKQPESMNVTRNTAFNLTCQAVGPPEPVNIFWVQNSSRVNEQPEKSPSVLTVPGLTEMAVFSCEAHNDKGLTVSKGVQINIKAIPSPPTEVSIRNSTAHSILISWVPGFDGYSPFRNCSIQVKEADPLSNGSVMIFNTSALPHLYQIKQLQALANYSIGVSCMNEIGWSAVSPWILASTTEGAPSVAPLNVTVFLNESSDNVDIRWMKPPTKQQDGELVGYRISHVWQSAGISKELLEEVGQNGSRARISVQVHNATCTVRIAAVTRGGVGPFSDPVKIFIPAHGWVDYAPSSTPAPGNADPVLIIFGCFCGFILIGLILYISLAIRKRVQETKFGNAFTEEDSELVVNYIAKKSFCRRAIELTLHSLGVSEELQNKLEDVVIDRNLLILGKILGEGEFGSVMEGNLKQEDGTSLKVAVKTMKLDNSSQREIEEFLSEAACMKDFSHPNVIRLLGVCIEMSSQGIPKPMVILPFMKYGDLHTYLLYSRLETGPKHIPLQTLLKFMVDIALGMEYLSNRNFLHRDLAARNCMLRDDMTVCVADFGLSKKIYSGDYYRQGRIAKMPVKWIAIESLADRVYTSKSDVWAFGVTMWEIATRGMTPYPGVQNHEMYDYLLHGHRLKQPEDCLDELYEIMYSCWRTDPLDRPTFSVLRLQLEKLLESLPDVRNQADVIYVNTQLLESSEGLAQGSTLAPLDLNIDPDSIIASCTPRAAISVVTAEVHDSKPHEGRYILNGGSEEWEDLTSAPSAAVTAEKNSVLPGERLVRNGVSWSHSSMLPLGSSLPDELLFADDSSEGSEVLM
Description: TR-FRET kinase activity assay, MERTK. Particulars: for IC50: TR-FRET activity assay, ATP at Km, 60 minutes, read-out: Mer IC50; for Mer/Flt3 ratio (FLT3 IC50/Mer IC50): ratio calculated as FLT3 IC50/Mer IC50. How it is done:
as §1, §2

The target in another assay is T3, AXL (Homo sapiens, UniProt P30530).
T3 sequence (P30530 26-894): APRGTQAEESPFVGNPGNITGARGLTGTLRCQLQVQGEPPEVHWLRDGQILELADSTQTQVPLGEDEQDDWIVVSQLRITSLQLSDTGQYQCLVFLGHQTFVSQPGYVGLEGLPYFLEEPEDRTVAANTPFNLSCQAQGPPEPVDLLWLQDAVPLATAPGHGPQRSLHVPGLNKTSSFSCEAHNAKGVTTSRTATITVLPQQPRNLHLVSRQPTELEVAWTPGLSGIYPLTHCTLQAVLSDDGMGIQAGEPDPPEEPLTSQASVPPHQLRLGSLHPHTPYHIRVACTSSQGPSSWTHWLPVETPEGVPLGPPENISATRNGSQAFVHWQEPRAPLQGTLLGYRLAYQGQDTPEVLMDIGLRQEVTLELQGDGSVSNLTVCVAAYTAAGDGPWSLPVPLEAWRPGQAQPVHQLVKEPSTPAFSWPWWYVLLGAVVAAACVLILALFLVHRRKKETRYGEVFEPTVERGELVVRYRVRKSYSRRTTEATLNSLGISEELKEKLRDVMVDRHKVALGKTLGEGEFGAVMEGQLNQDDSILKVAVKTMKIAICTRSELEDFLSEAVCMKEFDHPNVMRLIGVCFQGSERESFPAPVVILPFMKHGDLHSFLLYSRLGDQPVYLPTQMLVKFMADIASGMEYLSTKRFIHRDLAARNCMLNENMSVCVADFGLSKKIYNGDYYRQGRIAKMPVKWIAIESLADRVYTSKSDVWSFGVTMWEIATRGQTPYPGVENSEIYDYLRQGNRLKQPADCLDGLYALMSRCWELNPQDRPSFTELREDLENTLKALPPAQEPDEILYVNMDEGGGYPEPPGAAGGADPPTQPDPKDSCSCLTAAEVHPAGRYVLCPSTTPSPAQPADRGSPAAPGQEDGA
Description: TR-FRET kinase activity assay, AXL. The following applies: ATP at Km, 60 minutes. As for the experimental part: as §1, §2
A general note: TR-FRET usually uses a lanthanide donor and a delayed reading to cut background.

Molecules are shown by their SMILES.

As a reminder, the IC50 is the concentration that inhibits the measured activity by half. For `CCCCNc1ncc2c(=O)n(Cc3ccc(F)cc3)cc([C@H]3CC[C@H](O)CC3)c2n1` [Compound 105], the concentration for half-maximal inhibition (IC50) against FLT3 is 100 to 1000 nM; on MERTK, at most 100 nM; against AXL it was 100 to 1000 nM. Besides, at MERTK, the “Mer/Flt3 ratio (FLT3 IC50/Mer IC50)” value is “+ (a ratio of >2.0 and <10)”.
On to `CCCCNc1ncc2c(=O)n(C3CCOCC3)cc([C@H]3CC[C@H](O)CC3)c2n1` [Compound 106, 2-(butylamino)-8-(4-hydroxycyclohexyl)-6-tetrahydropyran-4-yl-pyrido[4,3-d]pyrimidin-5-one], for which the IC50 is 100 to 1000 nM against FLT3, at most 100 nM at MERTK and 100 to 1000 nM on AXL. Also, the “Mer/Flt3 ratio (FLT3 IC50/Mer IC50)” value at MERTK is “+ (a ratio of >2.0 and <10)”.
`COCC(COC)Nc1ncc2c(=O)n(C3CCNCC3)cc([C@H]3CC[C@H](O)CC3)c2n1` [Compound 110]: the IC50 against FLT3, on MERTK and against AXL was 1000 to 10000 nM each time. Further, at MERTK, the “Mer/Flt3 ratio (FLT3 IC50/Mer IC50)” value was “NS (a ratio of ≤2.0)”.
In the case of `COCC(C)Nc1ncc2c(=O)n(C3CCNCC3)cc(C3CCC(O)CC3)c2n1` (centres unmarked) [Compound 111, 8-((1r,4r)-4-hydroxycyclohexyl)-2-((1-methoxypropan-2-yl)amino)-6-(piperidin-4-yl)pyrido[4,3-d]pyrimidin-5(6H)-one], the figures for the IC50 at FLT3, at MERTK and at AXL were 1000 to 10000 nM, at most 100 nM and 100 to 1000 nM, respectively. At MERTK, the “Mer/Flt3 ratio (FLT3 IC50/Mer IC50)” value is listed as “+++ (a ratio of >100)”.
Consider `CCCCC[C@H](C)Nc1ncc2c(OC3CCOCC3)ncc([C@H]3CC[C@H](O)CC3)c2n1` [Compound 113], for which the IC50 at FLT3 was 1000 to 10000 nM; on MERTK, at most 100 nM; against AXL, 100 to 1000 nM. For the same compound, the “Mer/Flt3 ratio (FLT3 IC50/Mer IC50)” value at MERTK was “+++ (a ratio of >100)”.
For the compound `CCCCNc1ncc2c(NC3CCN(C)CC3)ncc([C@H]3CC[C@H](O)CC3)c2n1` [Compound 114], the values for the IC50 against FLT3, at MERTK and against AXL were at most 100 nM, at most 100 nM and 100 to 1000 nM, respectively. Besides, the “Mer/Flt3 ratio (FLT3 IC50/Mer IC50)” value at MERTK is “+++ (a ratio of >100)”.
As to `CCCCNc1ncc2c(Oc3ccc(F)cc3)ncc([C@H]3CC[C@H](O)CC3)c2n1` [Compound 115], the results for the half-maximal inhibitory concentration (IC50) against FLT3, on MERTK and against AXL were at most 100 nM, at most 100 nM and 1000 to 10000 nM, respectively. Moreover, the “Mer/Flt3 ratio (FLT3 IC50/Mer IC50)” value on MERTK is “+ (a ratio of >2.0 and <10)”.
`COCC(C)Nc1ncc2c(=O)n(C3CCN(C)CC3)cc([C@H]3CC[C@H](O)CC3)c2n1` (some centres unmarked) [Compound 118]: the IC50 against FLT3 lay within 1000 to 10000 nM; on MERTK, 100 to 1000 nM; at AXL, 100 to 1000 nM. In addition, the “Mer/Flt3 ratio (FLT3 IC50/Mer IC50)” value on MERTK is “++ (a ratio of between 10 and 100)”.
In the case of `CCCCC[C@H](C)Nc1ncc2c(OC3CCNCC3)ncc([C@H]3CC[C@H](O)CC3)c2n1` [Compound 121], the values for the half-inhibitory concentration (IC50) at FLT3, on MERTK and at AXL were 1000 to 10000 nM, at most 100 nM and 100 to 1000 nM, respectively. Moreover, on MERTK, the “Mer/Flt3 ratio (FLT3 IC50/Mer IC50)” value is “+++ (a ratio of >100)”.
`CCCCNc1ncc2c(N(C)C)ncc([C@H]3CC[C@H](O)CC3)c2n1` [Compound 123]: the IC50 is at most 100 nM against FLT3, 1000 to 10000 nM on MERTK and 100 to 1000 nM on AXL. On MERTK, the “Mer/Flt3 ratio (FLT3 IC50/Mer IC50)” value was “NS (a ratio of ≤2.0)”.
As to `CC[C@H](C)Nc1ncc2c(OCC34CCC(N)(CC3)CC4)ncc([C@H]3CC[C@H](O)CC3)c2n1` [Compound 252], the IC50 on FLT3 was 1000 to 10000 nM; at MERTK, at most 100 nM; on AXL, 100 to 1000 nM. For the same compound, the “Mer/Flt3 ratio (FLT3 IC50/Mer IC50)” value at MERTK is “++ (a ratio of between 10 and 100)”.
